{
  "source": "patent US12098352B2",
  "about": "“Stem cell-based lung-on-chip models” (EMULATE, INC., priority 2018, dated 2024)",
  "key": {"IL-6, IL-8 and MCP-1": {"system": "IL-6, IL-8 and MCP-1", "assay": "Cytokine secretion in chip medium effluent (ELISA)", "type": "cell-based, human", "from_the_text": "We studied interaction between different chip compartments by perturbating the system with biological and chemical stressors such as LPS, and H2O2 which are known to induce a reversible disruption of the cellular monolayer after acute administration both in vivo and in vitro. […] To assess changes in the barrier function following the exposure to these insults, we added a fluorescent dye (e.g. […]—Dextran-FITC) to the endothelial compartment, which is under control condition confirmed that the endothelium and epithelium form a barrier to the dies. The presence of a strong barrier is also indirectly confirmed by the presence of continuous pattern of E-cad and VE-cad in the monolayer of Alveolar epithelial and endothelial cell, respectively. […] We also decoupled the effect of single biological component to the inflammatory response by selectively removing them from the system in an integrated matrix. […] In fact, the recorded value of IL-6 and IL-8 is not the algebraic sum of the concentration of the factors released by the single cellular components. […]\nThe amount of Surfactant B and C was collected from chip epithelial cell surface by PBS washing and measured by Human SFTPB/Surfactant Protein B ELISA Kit (Sandwich ELISA)—LS-F4439 and Human SFTPC/Surfactant Protein C ELISA Kit (Sandwich ELISA)—LS-F12438 (LifeSpanBioScience) following the manufacturer's protocol. The color reaction was measured at 450 nm with a photometer (specification). […] Similarly, the presence of IL-6, IL-8 and MPC in medium samples was detected by Human TLR-induced Cytokines II: Microbial-induced Multi-Analyte ELISArray Kit (MEH-008A) (Qiogen) following the manufacturer's protocol. The color reaction was measured at 450 nm with a photometer (specification). […]"}, "[1]": {"system": "epithelium-endothelium co-culture perfused with human whole blood", "settings": "LPS treatment of the alveolar lumen of epithelium-endothelium co-culture; cited from earlier work"}, "ICAM1": {"system": "ICAM1", "assay": "ICAM1 immunostaining of endothelial cells (HMECs) lining the vascular surface of the Chip", "type": "cell-based, human", "protocol": "FIG. 22A Effect of LPS on Vascular Expression of ICAM1. […] Representative images (20×) of endothelial cells (HMECs) lining the vascular surface of the Chip fixed and stained for ICAM1 (red) at 24 h post LPS treatment of the alveolar epithelial compartment. Nuclei are colored blue. […] IL-6, il-8 and MCP-1 have 40-90 fold increases in relation to untreated controls. FIG. 22C Detection of exemplary Lung-Specific Cytokines and Chemokines, IL-6; IL-8; MCP-1 and RANTES, in response to LPS stimulation. Co-cultures of Epithelium/Fibroblasts/Vasculature induced higher levels of cytokines than co-cultures of Epithelium/Vasculature; Fibroblasts/Vasculature or Vasculature alone.\nInterconnectivity refers to the observation that adding a compound to the epithelial side may induce a cytokine mediated response in the endothelial side. […] In other words, inflamed epithelial cells modulate function of the endothelial cells.\nOpen-Top Organ-Chips were fixed in 10% neutral buffered formalin. Endothelial cells were stained inside the chip by performinutesg the immunofluorescence steps described below directly inside the microfluidic channel. Stroma equivalents were stained as described by the step below inside the chip or alternatively extracted from the chip and processed for immunohistochemistry analysis. […]"}},
  "note": "“Also recorded” adds a separate entry of the source.",
  "data": [
    {"substance": "Lipopolysaccharide [LPS]", "values": [
      {"measurement": "release of IL-6, IL-8 and MCP-1 in medium effluent", "setting": "IL-6, IL-8 and MCP-1; 24 hours of exposure", "value": "increases of lung specific cytokines"},
      {"measurement": "IL-6, IL-8 and MCP-1 secretion, fold increase in relation to untreated controls", "setting": "IL-6, IL-8 and MCP-1; LPS stimulation, co-presence of epithelial cells", "value": "40-90 fold"},
      {"measurement": "thrombotic events", "setting": "[1]", "value": "triggered thrombotic events"},
      {"measurement": "ICAM expression, endothelial cells exposed directly", "setting": "ICAM1; LPS directly on endothelial cells, no epithelium", "value": "does not induce expression of ICAM"},
      {"measurement": "vascular expression of ICAM1", "setting": "ICAM1; LPS on the alveolar epithelial compartment, 24 h", "value": "induced vascular expression of ICAM1; also recorded: induces expression of ICAM on endothelial cells; also recorded: induces ICAM1 expression only in presence of epithelial cells"}
    ]}
  ]
}
